Assay results published in patent US10294202B2, “Pyrrolidinones as herbicides” (FMC Corporation, priority 2013, dated 2019).
Several values for one entry are separate records, joined by “and”; a condition that tells them apart may be missing. Equal entries are not always repeated.

Assays:
barnyardgrass [1] = test: Test A pre-/postemergence herbicide test; type: in vivo, Echinochloa crus-galli; settings: 1000 g ai/ha
In short: (§1)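 Approximately 10 days after treatment in the greenhouse, plants were compared with untreated controls and given a 0–100 visual injury rating. Applications: preemergence directed soil spray; postemergence on 2–10 cm plants at the one- to two-leaf stage.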

crabgrass, large = test: Test A pre-/postemergence herbicide test; type: in vivo, Digitaria sanguinalis; settings: 1000 g ai/ha
In short: as §1

giant foxtail = test: Test A pre-/postemergence herbicide test; type: in vivo, Setaria faberii; settings: 1000 g ai/ha
In short: as §1

morningglory = test: Test A pre-/postemergence herbicide test; type: in vivo, Ipomoea spp.; settings: 1000 g ai/ha
In short: as §1

pigweed = test: Test A pre-/postemergence herbicide test; type: in vivo, Amaranthus retroflexus; settings: 1000 g ai/ha
In short: as §1

velvetleaf = test: Test A pre-/postemergence herbicide test; type: in vivo, Abutilon theophrasti; settings: 1000 g ai/ha
In short: as §1

wheat = test: Test A pre-/postemergence herbicide test; type: in vivo, Triticum aestivum; settings: 1000 g ai/ha
In short: as §1

corn = test: Test A pre-/postemergence herbicide test; type: in vivo, Zea mays; settings: 1000 g ai/ha
In short: as §1

rice = test: Test B flooded paddy test; type: in vivo, Oryza sativa; settings: 1000 g ai/ha, Flood; scale of 0 to 100 where 0 is no effect and 100 is complete control
In short: (§2)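 Scored visually 0–100 (0 no effect, 100 complete control) versus controls after 13 to 15 greenhouse days. Treatment: compound added to paddy water kept 3 cm above soil, on 2-leaf-stage plants.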

sedge, umbrella = test: Test B flooded paddy test; type: in vivo, Cyperus difformis; settings: 1000 g ai/ha, Flood; scale of 0 to 100 where 0 is no effect and 100 is complete control
In short: as §2

ducksalad = test: Test B flooded paddy test; type: in vivo, Heteranthera limosa; settings: 1000 g ai/ha, Flood; scale of 0 to 100 where 0 is no effect and 100 is complete control
In short: as §2

barnyardgrass [2] = test: Test B flooded paddy test; type: in vivo, Echinochloa crus-galli; settings: 1000 g ai/ha, Flood; scale of 0 to 100 where 0 is no effect and 100 is complete control
In short: as §2

monochoria = test: Test F flood (paddy) test; type: in vivo, Monochoria vaginalis; settings: 21 d, scale 0-100
From the text: (§3) Three plastic pots (ca. 16-cm diameter) per rate were partially filled with sterilized Tama silt loam soil comprising a 35:50:15 ratio of sand, silt and clay and 2.6% organic matter. Separate plantings for each of the three pots were as follows. Seeds from the U.S. of monochoria (Monochoria vaginalis), sedge, umbrella (small-flower umbrella sedge, Cyperus difformis), bulrush, […] bulrush, Scirpus juncoides), and […] (purple […] coccinea), were planted into one 16-cm pot for each rate. Seeds from the U.S. of flatsedge, rice (rice flatsedge, Cyperus iria), sprangletop, Brdd. (bearded sprangletop, Leptochloa fascicularis), one stand of 9 or 10 water seeded rice seedlings (Rice, W.S. Jap, Oryza sativa cv. 'Japonica-[…]' or Rice, W.S. Ind, 'Indica'), and two stands of 3 or 4 seedlings of rice, transplanted (transplanted rice, Oryza sativa cv. 'Japonica-[…]') were planted into one 16-cm pot for each rate. Seeds from the U.S. of barnyardgrass (Echinochloa crus-galli), […] (common […], Alisma plantago-aquatica), and watergrass, late (late watergrass, Echinochloa oryzicola) were planted into one 16-cm pot for each rate. Plantings were sequential so that crop and weed species were at the 2.0 to 2.5-leaf stage at time of treatment. Potted plants were grown in a greenhouse with day/night temperature settings of 30/27° C., and supplemental balanced lighting was provided to maintain a 16-h photoperiod. Test pots were maintained in the greenhouse until test completion. At time of treatment, test pots were flooded to 3 cm above the soil surface, treated by application of test compounds directly to the paddy water, and then maintained at that water depth for the duration of the test. Effects of treatments on rice and weeds were visually evaluated by comparison to untreated controls after 21 d. Plant response ratings, summarized in Table F, are based on a scale of 0 to 100 where 0 is no effect and 100 is complete control. A dash (-) response means no test result.

sprangletop, Brdd. = test: Test F flood (paddy) test; type: in vivo, Leptochloa fascicularis; settings: 21 d, scale 0-100
From the text: as §3

Rice, W.S. Ind = test: Test F flood (paddy) test; type: in vivo, Oryza sativa Indica; settings: 21 d, scale 0-100
From the text: as §3

rice, transplanted = test: Test F flood (paddy) test; type: in vivo, Oryza sativa cv. Japonica—M202; settings: 21 d, scale 0-100
From the text: as §3

barnyardgrass [3] = test: Test F flood (paddy) test; type: in vivo, Echinochloa crus-galli; settings: 21 d, scale 0-100
From the text: as §3

watergrass, late = test: Test F flood (paddy) test; type: in vivo, Echinochloa oryzicola; settings: 21 d, scale 0-100
From the text: as §3

[4] = test system: small-flower umbrella sedge (CYPDI); test: Test G paddy mixture test (Colby); type: in vivo, Cyperus difformis; settings: applied alone, 14 d; for CYPDI Obsd. plant response rating (scale 0 to 100): flooded; for CYPDI Obsd.: scale 0-100
Description: (§4) Seeds of small-flower umbrella […], Cyperus difformis) and […], Heteranthera limosa) were sown on the soil surface in two separate quadrants of 11-cm (4-inch) tubs filled with steam pasteurized Tama soil. Simultaneously, plantings of […], Echinochloa crus-galli) and transplanted japonica rice (ORYSA, Oryza sativa) were established in separate “plug” flats. […] Herbicide application timing was targeted at the 2.0 to 2.5 leaf stage and the plants were treated with test chemicals formulated in a non-phytotoxic solvent. Treated plants and controls were maintained in a greenhouse for 14 d, after which time all species were compared to controls and visually evaluated. Plant response ratings are summarized in Tables G1 through G12, and are based on a scale of 0 to 100 where 0 is no effect and 100 is complete control. A dash (-) response means no test result. Colby's Equation was used to determine the herbicidal effects expected from the mixtures. Colby's Equation (Colby, S. R. “Calculating Synergistic and Antagonistic Responses of Herbicide Combinations,” Weeds, 15(1), pp 20-22 (1967)) calculates the expected additive effect of herbicidal mixtures and for two active ingredients is of the form: Pa+b=Pa+Pb-(PaPb/100) where • Pa+b is the percentage effect of the mixture expected from additive contribution of the individual components: • Pa is the observed percentage effect of the first active ingredient at the same use rate as in the mixture, and • Pb is the observed percentage effect of the second active ingredient at the same use rate as in the mixture. In the following Tables, rates are shown in grams of active ingredient per […]); “Obsd.” is the observed effect. “Exp.” is the expected effect calculated from Colby's Equation.

ducksalad (HETLI) = test: Test G paddy mixture test (Colby); type: in vivo, Heteranthera limosa; settings: applied alone, 14 d; for HETLI Obsd. plant response rating (scale 0 to 100): flooded; for HETLI Obsd.: scale 0-100
Description: as §4

barnyardgrass (ECHCG) = test: Test G paddy mixture test (Colby); type: in vivo, Echinochloa crus-galli; settings: applied alone, 14 d; for ECHCG Obsd. plant response rating (scale 0 to 100): flooded; for ECHCG Obsd.: scale 0-100
Description: as §4

[5] = test system: transplanted japonica rice (ORYSA); test: Test G paddy mixture test (Colby); type: in vivo, Oryza sativa; settings: applied alone, 14 d; for ORYSA Obsd. plant response rating (scale 0 to 100): flooded; for ORYSA Obsd.: scale 0-100
Description: as §4

[6] = Postemergence, 0 to 100 scale (0 no effect, 100 complete control)
[7] = Preemergence, visual rating on 0 to 100 scale (0 no effect, 100 complete control), approx. 10 days

O=C1NCC(c2ccc(F)c(F)c2)C1C(=O)Nc1ccccc1Cl (racemic) [Compound 99]
Plant response rating, Barnyardgrass (barnyardgrass [1]; [6]): 90 | Plant response rating, Barnyardgrass (barnyardgrass [1]; [7]): 90 | Plant response rating, Crabgrass, Large (crabgrass, large; [6]): 90 | Plant response rating, Crabgrass, Large (crabgrass, large; [7]): 90 | Plant response rating, Foxtail, Giant (giant foxtail; [6]): 90 | Plant response rating, Foxtail, Giant (giant foxtail; [7]): 90 | Plant response rating, Morningglory (morningglory; [6]): 10 | Plant response rating, Morningglory (morningglory; [7]): 0 | Plant response rating, Pigweed (pigweed; [6]): 0 | Plant response rating, Pigweed (pigweed; [7]): 0 | Plant response rating, Velvetleaf (velvetleaf; [6]): 10 | Plant response rating, Velvetleaf (velvetleaf; [7]): 0 | Plant response rating, Wheat (wheat; [6]): 20 | Plant response rating, Wheat (wheat; [7]): 20 | Plant response rating, Corn (corn; [6]): 20 | Plant response rating, Corn (corn; [7]): 20 | Plant response rating, Rice (rice): 10 | Plant response rating, Sedge, Umbrella (sedge, umbrella): 0 | Plant response rating, Ducksalad (ducksalad): 95 | Plant response rating, Barnyardgrass (barnyardgrass [2]): 80 | Plant response rating, Monochoria (monochoria; 125 g ai/ha): 50 | Plant response rating, Monochoria (monochoria; 250 g ai/ha): 85 | Plant response rating, Monochoria (monochoria; 500 g ai/ha): 95 | Plant response rating, Sprangletop, Brdd. (sprangletop, Brdd.; 125 g ai/ha): 0 | Plant response rating, Sprangletop, Brdd. (sprangletop, Brdd.; 250 g ai/ha): 75 | Plant response rating, Sprangletop, Brdd. (sprangletop, Brdd.; 500 g ai/ha): 85 | Plant response rating, Rice, W.S. Ind (Rice, W.S. Ind; 125 g ai/ha): 0 | Plant response rating, Rice, W.S. Ind (Rice, W.S. Ind; 250 g ai/ha): 0 | Plant response rating, Rice, W.S. Ind (Rice, W.S. Ind; 500 g ai/ha): 0 | Plant response rating, Rice, Transplanted (rice, transplanted; 125 g ai/ha): 0 | Plant response rating, Rice, Transplanted (rice, transplanted; 250 g ai/ha): 0 | Plant response rating, Rice, Transplanted (rice, transplanted; 500 g ai/ha): 0 | Plant response rating, Barnyardgrass (barnyardgrass [3]; 125 g ai/ha): 25 | Plant response rating, Barnyardgrass (barnyardgrass [3]; 250 g ai/ha): 50 | Plant response rating, Barnyardgrass (barnyardgrass [3]; 500 g ai/ha): 80 | Plant response rating, Watergrass, Late (watergrass, late; 125 g ai/ha): 30 | Plant response rating, Watergrass, Late (watergrass, late; 250 g ai/ha): 40 | Plant response rating, Watergrass, Late (watergrass, late; 500 g ai/ha): 50

CCN(C(=O)n1nnn(-c2ccccc2Cl)c1=O)C1CCCCC1 [Fentrazamide]
CYPDI Obsd. plant response rating (scale 0 to 100) ([4]; 100 g a.i./ha): 90 and 100 | CYPDI Obsd. plant response rating (scale 0 to 100) ([4]; 200 g a.i./ha): 100 | HETLI Obsd. plant response rating (scale 0 to 100) (ducksalad (HETLI); 100 g a.i./ha): 85 and 100 | HETLI Obsd. plant response rating (scale 0 to 100) (ducksalad (HETLI); 200 g a.i./ha): 100 | ECHCG Obsd. plant response rating (scale 0 to 100) (barnyardgrass (ECHCG); 100 g a.i./ha): 50 and 85 | ECHCG Obsd. plant response rating (scale 0 to 100) (barnyardgrass (ECHCG); 200 g a.i./ha): 95 and 85 | ORYSA Obsd. plant response rating (scale 0 to 100) ([5]; 100 g a.i./ha): 0

CN(C(=O)COc1nc2ccccc2s1)c1ccccc1 [Mefenecet]
CYPDI Obsd. ([4]; 300 g a.i./ha): 100 | HETLI Obsd. (ducksalad (HETLI); 300 g a.i./ha): 100

COCc1cccc(C(O)c2nc(OC)cc(OC)n2)c1NS(=O)(=O)C(F)F (stereo not drawn) [Pyrimisulfan]
CYPDI Obsd. ([4]; 20 g a.i./ha): 98 and 100 | HETLI Obsd. (ducksalad (HETLI); 20 g a.i./ha): 100 | ECHCG Obsd. (barnyardgrass (ECHCG); 20 g a.i./ha): 75 and 80 | ORYSA Obsd. ([5]; 20 g a.i./ha): 25 and 20

CS(=O)(=O)c1ccc(C(=O)C2C(=O)CCCC2=O)c(Cl)c1COCC1CCCO1 (stereo not drawn) [Tefuryltrione]
CYPDI Obsd. ([4]; 100 g a.i./ha): 90 | CYPDI Obsd. plant response rating (scale 0 to 100) ([4]; 100 g a.i./ha): 100 | HETLI Obsd. (ducksalad (HETLI); 100 g a.i./ha): 90 | HETLI Obsd. plant response rating (scale 0 to 100) (ducksalad (HETLI); 100 g a.i./ha): 100 | ECHCG Obsd. (barnyardgrass (ECHCG); 100 g a.i./ha): 0 | ECHCG Obsd. plant response rating (scale 0 to 100) (barnyardgrass (ECHCG); 100 g a.i./ha): 40 | ORYSA Obsd. ([5]; 100 g a.i./ha): 0 | ORYSA Obsd. plant response rating (scale 0 to 100) ([5]; 100 g a.i./ha): 0

COc1nc(OC)nc(C(=O)c2cccc(F)c2N(C)S(=O)(=O)C(F)F)n1 [Triafamone, N-[2-[(4,6-dimethoxy-1,3,5-triazin-2-yl)carbonyl]-6-fluorophenyl]-1,1-difluoro-N-methylmethanesulfonamide]
CYPDI Obsd. ([4]; 20 g a.i./ha): 0 | HETLI Obsd. (ducksalad (HETLI); 20 g a.i./ha): 0 | ECHCG Obsd. (barnyardgrass (ECHCG); 20 g a.i./ha): 90 and 85 | ORYSA Obsd. ([5]; 20 g a.i./ha): 0
